Test [1] deals with T1, Y1R (Homo sapiens, UniProt P25929).
T1 construct: expressed in transfected cells; host or cells: HEK293, transient
T1 sequence (P25929 1-384): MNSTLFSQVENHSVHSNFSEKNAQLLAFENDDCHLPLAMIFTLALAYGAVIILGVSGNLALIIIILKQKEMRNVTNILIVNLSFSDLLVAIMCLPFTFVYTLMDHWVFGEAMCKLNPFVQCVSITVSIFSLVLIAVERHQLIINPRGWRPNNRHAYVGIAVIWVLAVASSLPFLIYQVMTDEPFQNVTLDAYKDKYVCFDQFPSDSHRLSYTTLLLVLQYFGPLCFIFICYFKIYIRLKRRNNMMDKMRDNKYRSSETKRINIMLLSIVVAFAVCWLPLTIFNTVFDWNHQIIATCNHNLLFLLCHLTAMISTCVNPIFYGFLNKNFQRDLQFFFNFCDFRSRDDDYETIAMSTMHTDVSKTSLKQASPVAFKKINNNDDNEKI
The experiment in a line: cAMP reporter gene assay, Gi/o, Y1R. It counts as cell-based. As to conditions: for cAMP assay (Gi/o), Y1R: 4 h, lower = higher Gi/o activity, transfected HEK293, CRE-luciferase, mean of >=3 independent experiments; for Gi (Gs) [x-fold of forskolin], Y1R, mean: inhibition of cAMP production induced by 1 µM forskolin (set to 1.00), transiently transfected HEK293 cells, mean of at least three independent experiments. As to the method: (§1) Activation of Gs and Gi/o was assessed with a cAMP reporter gene assay. HEK293 cells grown to 70–80% confluency in 6-well plates were transiently co-transfected with vectors encoding the receptor and the cAMP reporter gene plasmid pGL4.29 [luc2P/CRE/Hygro] (Promega; 4 μg total, 1:1 ratio) using Metafectene Pro (3 μl/μg DNA; Biontex) following the manufacturer’s instructions. 16 h post transfection, the cells were seeded into white 384-well plates at a density of 20,000 cells/well. On the next day, the medium was removed and the cells were stimulated with 20 μl of peptide solution (or forskolin as positive control) in serum-free DMEM for 4 h. For measuring Gi/o activity, the peptide solutions additionally contained 1 μM forskolin to elevate cellular cAMP levels. After incubation, the luciferase substrate OneGlo in lysis buffer (Promega) was added and the luminescence was measured in a microplate reader Tecan Spark (Tecan). Data were analyzed with GraphPad Prism 5.03 and are shown as fold of basal or fold of forskolin in case of Gαi/o activity.
(§2) For in vitro activation, data is presented as mean ± SEM of at least three independent experiments conducted in technical triplicate. […] For the C. elegans NPRs, we considered the strongest response elicited by any of the peptides downstream of a particular receptor as the receptor’s maximal signal. This may or may not be the biological maximum that can be reached by the ‘true’ endogenous agonist. For the human receptors, the response to the established endogenous agonist reflected the maximal signal.
In general terms: In a reporter assay the amount or activity of a reporter protein is the signal.

The target of test [2] is T2, Y4R (Homo sapiens, UniProt P50391).
T2 construct: expressed in transfected cells; host or cells: HEK293, transient
T2 sequence (P50391 whole entry): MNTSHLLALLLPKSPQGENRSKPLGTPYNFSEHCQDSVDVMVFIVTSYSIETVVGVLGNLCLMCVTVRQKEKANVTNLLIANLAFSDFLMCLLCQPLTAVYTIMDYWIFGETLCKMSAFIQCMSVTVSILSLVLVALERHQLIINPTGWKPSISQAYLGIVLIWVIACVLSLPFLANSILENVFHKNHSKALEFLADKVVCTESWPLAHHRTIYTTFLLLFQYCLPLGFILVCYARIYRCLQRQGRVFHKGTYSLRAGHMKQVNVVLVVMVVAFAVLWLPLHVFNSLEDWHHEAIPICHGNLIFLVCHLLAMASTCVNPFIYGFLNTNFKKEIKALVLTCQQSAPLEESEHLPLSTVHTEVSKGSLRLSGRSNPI
In words: cAMP reporter gene assay, Gi/o, Y4R. It counts as cell-based. Particulars: for cAMP assay (Gi/o), Y4R: 4 h, lower = higher Gi/o activity, transfected HEK293, CRE-luciferase, mean of >=3 independent experiments; for Gi (Gs) [x-fold of forskolin], Y4R, mean: inhibition of cAMP production induced by 1 µM forskolin (set to 1.00), transiently transfected HEK293 cells, mean of at least three independent experiments. As to the method:
as §1, §2

Test [3] addresses T3, NPR-3 (Caenorhabditis elegans, UniProt P90745).
T3 construct: expressed in transfected cells; host or cells: HEK293
T3 sequence (P90745 1-376): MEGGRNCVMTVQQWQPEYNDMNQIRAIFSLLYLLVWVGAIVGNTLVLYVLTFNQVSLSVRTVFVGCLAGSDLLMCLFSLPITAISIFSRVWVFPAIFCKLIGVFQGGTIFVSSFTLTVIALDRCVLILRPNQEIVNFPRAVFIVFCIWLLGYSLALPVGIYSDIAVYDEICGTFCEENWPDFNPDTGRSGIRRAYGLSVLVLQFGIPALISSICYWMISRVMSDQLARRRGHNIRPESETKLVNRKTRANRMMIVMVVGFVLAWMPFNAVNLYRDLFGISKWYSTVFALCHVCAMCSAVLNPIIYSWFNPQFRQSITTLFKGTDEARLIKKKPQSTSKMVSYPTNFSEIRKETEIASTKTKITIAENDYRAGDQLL
In words: IP accumulation assay, chimeric GαΔ6qi4myr, NPR-3. It counts as cell-based, C. elegans. As to conditions: 1 h, HBSS + 20 mM LiCl, HEK293 receptor + GαΔ6qi4myr, HTRF IP-One. How it is done: (§3) For measuring IP accumulation, HEK293 cells grown to 70–80% confluency in 6-well plates were transiently co-transfected using Metafectene Pro (2.5 μl/μg DNA; Biontex) with plasmids containing receptor and/or mock (empty pcDNA3.1) (for endogenous Gq-coupling) using 4 μg total DNA in a ratio of 3:1 following the manufacturer’s instructions. For testing Gα16- and GαΔ6qi4myr-coupling, plasmids encoding the corresponding Gα protein were co-transfected instead of mock. Gα16 is naturally promiscuous and stimulates the phospholipase C (PLC) pathway leading to IP production, while the exchange of the C-terminal four amino acids of Gαq for the corresponding residues of Gαi1 in the chimeric GαΔ6qi4myr confers the ability to couple to Gi/o protein-preferring receptors but still stimulate PLC, thus specifically redirecting downstream cellular signaling. 16 h post transfection, the cells were seeded into white 384-well plates at a density of 20,000 cells/well. Media was removed 24 h later and the cells were incubated with the indicated concentration of peptides for 1 h in HBSS + 20 mM LiCl. IP accumulation was measured with the HTRF-based IP-One Gq kit (Cisbio) on a microplate reader (Tecan Spark).
as §2

Test [4] addresses T4, NPR-11 (Caenorhabditis elegans, UniProt Q18179).
T4 construct: expressed in transfected cells; host or cells: HEK293, transient
T4 sequence (Q18179 1-402): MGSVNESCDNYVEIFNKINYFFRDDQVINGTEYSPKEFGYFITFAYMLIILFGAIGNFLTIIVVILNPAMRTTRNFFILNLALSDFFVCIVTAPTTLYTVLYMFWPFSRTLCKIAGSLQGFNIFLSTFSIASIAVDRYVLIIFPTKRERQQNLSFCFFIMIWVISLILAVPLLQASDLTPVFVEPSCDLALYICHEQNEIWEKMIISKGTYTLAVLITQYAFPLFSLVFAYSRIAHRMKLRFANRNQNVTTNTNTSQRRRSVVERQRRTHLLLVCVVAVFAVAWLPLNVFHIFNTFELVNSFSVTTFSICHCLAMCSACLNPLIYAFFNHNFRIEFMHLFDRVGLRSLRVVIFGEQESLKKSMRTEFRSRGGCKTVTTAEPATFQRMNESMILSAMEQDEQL
The experiment in a line: IP accumulation assay, chimeric GαΔ6qi4myr, NPR-11. The format is cell-based, C. elegans. Particulars: 1 h, HBSS + 20 mM LiCl, HEK293 receptor + GαΔ6qi4myr, HTRF IP-One. How it is done: as §3, §2
A general note: In TR-FRET formats the signal depends on donor and acceptor labels being close together.

The mark [5] stands for this setting: 0.1 µM peptide + 1 µM forskolin (set to 1.00).
Where [6] appears, read: 10 µM peptide + 1 µM forskolin (set to 1.00).
[7] abbreviates: 0.1 µM peptide (Table S8), mean of >=3 independent experiments.
Setting [8] is: 10 µM peptide, mean of >=3 independent experiments (Tables S5 and S8).
The mark [9] stands for this setting: 0.1 nM peptide (Table S5), mean of >=3 independent experiments.

Turning to “APLEGFEDMSGFLRTIDGIQKPRF-NH2 [FLP-33, NPY-like C. elegans FLP with C-terminal RxRF/Ya signature]”, the “cAMP assay (Gi/o), Y1R” value is 0.94 x-fold of forskolin in test [1] (setting [5]) and 0.73 x-fold of forskolin in test [1] (setting [6]). The “cAMP assay (Gi/o), Y4R” value in test [2] (setting [5]) is recorded as 0.95 x-fold of forskolin; in test [2] (setting [6]), 0.90 x-fold of forskolin.

As for RGPSGPLAF-NH2 [[R8A]FLP-15-2], the entries for the “Gi (Gs) [x-fold of forskolin], Y1R, mean” value in test [1] (0.1 µM peptide) and in test [1] (10 µM peptide) were 0.72 x-fold of forskolin and 0.71 x-fold of forskolin, respectively. The “Gi (Gs) [x-fold of forskolin], Y4R, mean” value in test [2] (0.1 µM peptide) is given as 0.79 x-fold of forskolin; in test [2] (10 µM peptide) it was 0.94 x-fold of forskolin.

Take “NPENDTPFGTMRF-NH2 [FLP-3-4, C. elegans FMRFamide-like peptide, C-terminally amidated, synthesized by SPPS]”: the results for the “IP accumulation with GαΔ6qi4myr, NPR-3” value in test [3] (setting [7]) and in test [3] (setting [8]) were 0.97 x-fold of basal and 0.91 x-fold of basal, respectively. Also, the “IP accumulation with GαΔ6qi4myr, NPR-11” value in test [4] (setting [7]) is on record as 0.92 x-fold of basal; in test [4] (setting [8]), 1.17 x-fold of basal.

For “AGSDPNFLRF-NH2 [FLP-1-2, C. elegans FMRFamide-like peptide, C-terminally amidated, synthesized by SPPS]”, the “IP accumulation with GαΔ6qi4myr, NPR-3” value in test [3] (setting [7]) was 0.96 x-fold of basal; in test [3] (setting [8]) it was 0.93 x-fold of basal. For the same substance, the “IP accumulation with GαΔ6qi4myr, NPR-11” value in test [4] (setting [7]) is listed as 0.92 x-fold of basal; in test [4] (setting [8]), 6.48 x-fold of basal.

“GLGPRPLAF-NH2 [[R8A]FLP-21, R8A control peptide of FLP-21, penultimate arginine exchanged for an alanine]”: the “Gi (Gs) [x-fold of forskolin], Y1R, mean” value in test [1] (0.1 µM peptide) is reported as 0.85 x-fold of forskolin; in test [1] (10 µM peptide), 0.76 x-fold of forskolin. In addition, the figures for the “Gi (Gs) [x-fold of forskolin], Y4R, mean” value in test [2] (0.1 µM peptide) and in test [2] (10 µM peptide) were 0.81 x-fold of forskolin and 0.85 x-fold of forskolin, respectively.

On to “EASAFGDIIGELKGKGLGGRMRF-NH2 [FLP-27, NPY-like C. elegans FLP with C-terminal RxRF/Ya signature]”, for which the “cAMP assay (Gi/o), Y1R” value in test [1] (setting [5]) is on record as 0.88 x-fold of forskolin; in test [1] (setting [6]), 0.23 x-fold of forskolin. In addition, the “cAMP assay (Gi/o), Y4R” value in test [2] (setting [5]) is 1.01 x-fold of forskolin; in test [2] (setting [6]), 0.75 x-fold of forskolin.

With “ASPSFIRF-NH2 [FLP-4-2, C. elegans FMRFamide-like peptide, C-terminally amidated, synthesized by SPPS]”, the “IP accumulation with GαΔ6qi4myr, NPR-3” value in test [3] (setting [7]) is given as 0.92 x-fold of basal; in test [3] (setting [8]), 1.05 x-fold of basal. Further, the “IP accumulation with GαΔ6qi4myr, NPR-11” value in test [4] (setting [7]) is listed as 1.03 x-fold of basal; in test [4] (setting [8]), 2.79 x-fold of basal.

Take “APKPKFIRF-NH2 [FLP-5-1, C. elegans FMRFamide-like peptide, C-terminally amidated, synthesized by SPPS]”: the “IP assay endog. Gαq + GαΔ6qi4myr, NPR-3” value in test [3] (setting [9]) is on record as 0.88 x-fold of basal. The “IP accumulation with GαΔ6qi4myr, NPR-3” value in test [3] (setting [7]) is 0.88 x-fold of basal; in test [3] (setting [8]), 0.95 x-fold of basal. Besides, in test [4] (setting [9]), the “IP assay endog. Gαq + GαΔ6qi4myr, NPR-11” value is recorded as 1.03 x-fold of basal. Also, the figures for the “IP accumulation with GαΔ6qi4myr, NPR-11” value in test [4] (setting [7]) and in test [4] (setting [8]) were 1.03 x-fold of basal and 6.49 x-fold of basal, respectively.

The values are drawn from paper PMC6751662, “Pharmacological and functional similarities of the human neuropeptide Y system in C. elegans challenges phylogenetic views on the FLP/NPR system” (Cell Communication and Signaling : CCS, 2019).
